Assay results published in PMC11695965 (Nature Communications, 2025).
Where two headings read alike, the source gives them in different places.

How the values were obtained:
[1] = target: EcDERA (deoxyribose-5-phosphate aldolase); HSA = its T19S/G171A/V206I mutant (Escherichia coli, UniProt P0A6L0)
[2] = target: T1, CkPTA (phosphotransacetylase) (Clostridium kluyveri, UniProt A5N801); experiment: acetyl-CoA formation; format: biochemical
T1 sequence (A5N801 1-333): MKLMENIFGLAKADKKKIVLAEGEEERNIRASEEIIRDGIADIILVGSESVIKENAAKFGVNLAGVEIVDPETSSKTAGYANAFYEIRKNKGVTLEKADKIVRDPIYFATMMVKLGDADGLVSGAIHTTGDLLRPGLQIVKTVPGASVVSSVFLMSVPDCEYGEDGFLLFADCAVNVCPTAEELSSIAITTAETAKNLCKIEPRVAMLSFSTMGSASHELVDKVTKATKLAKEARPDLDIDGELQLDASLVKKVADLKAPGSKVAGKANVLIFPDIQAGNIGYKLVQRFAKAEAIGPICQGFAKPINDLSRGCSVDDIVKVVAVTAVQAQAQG

EcDERA (deoxyribose-5-phosphate aldolase); HSA = its T19S/G171A/V206I mutant, sequence (P0A6L0 whole entry T19S/G171A/V206I): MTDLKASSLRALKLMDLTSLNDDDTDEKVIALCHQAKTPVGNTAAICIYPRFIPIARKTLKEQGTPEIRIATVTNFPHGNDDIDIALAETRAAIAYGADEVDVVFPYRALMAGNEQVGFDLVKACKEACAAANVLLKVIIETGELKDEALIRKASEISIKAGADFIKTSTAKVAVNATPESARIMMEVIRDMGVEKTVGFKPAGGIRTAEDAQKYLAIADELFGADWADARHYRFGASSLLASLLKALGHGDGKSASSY

| Structure (SMILES) | acetyl-CoA formation [2] | other results |
| --- | --- | --- |
| O=CCO [glycolaldehyde] |  | product formation (H6P) ([1]; with erythrose 4-phosphate): deoxyribose-5-phosphate aldolase (EcDERA) showing the highest activity |
| CC(=O)OP(=O)(O)O [acetyl phosphate] | CkPTA then converted acetyl phosphate into acetyl-CoA as the output product |  |
| O=C[C@H](O)[C@H](O)COP(=O)(O)O [erythrose 4-phosphate] |  | product formation (H6P) ([1]; with glycolaldehyde): enzyme for the condensation of glycolaldehyde and E4P to H6P |
| CC(=O)SCCNC(=O)CCNC(=O)[C@H](O)C(C)(C)COP(=O)(O)OP(=O)(O)OC[C@H]1O[C@@H](n2cnc3c(N)ncnc32)[C@H](O)[C@@H]1OP(=O)(O)O [acetyl-CoA] | CkPTA then converted acetyl phosphate into acetyl-CoA as the output product |  |
